# Results taken from paper PMC12388801, “Identification of Bioactive Peptides from Caenorhabditis elegans Secretions That Promote Indole-3-Acetic Acid Production in Arthrobacter pascens ZZ21” (Microorganisms, 2025).
# Read-outs that look alike come from different tables or passages of the source. Peptide text beside a SMILES is read from it.
# Assay: Solubility assessment of synthetic candidate peptides
# Protocol: Candidate peptide sequences identified by LC-MS/MS were synthesized using GenScript Biotech (Nanjing, China). Peptide solubility was tested in various solvents to determine optimal conditions for functional assays. Initial screening was performed in 30 mL of inorganic salt medium with 200 mg/L L-tryptophan. A. pascens ZZ21 was inoculated at 1% (v/v), and peptides were tested at 1 ppm and 0.1 ppm. The peptides were dissolved according to their solubility profiles, with corresponding solvent controls: CK-A (1 ppm blank) and CK-B (0.1 ppm blank). Cultures were incubated at 30 °C, 250 rpm for 48 h, after which IAA levels in the supernatants were measured.
# This analysis was conducted by Biotech Pack Scientific Co., Ltd. (Beijing, China).
# [1] = synthetic peptide, N/A = lower than 0.1 mg/mL
# [2] = synthetic peptide, ultrapure water, N/A = lower than 0.1 mg/mL
Compound,Solubilty in 0.1 M PBS [1],Solubilty in DMSO [1],Solubilty in ultrapure water [2],Solubilty in ultrapure water [mg/mL]
CC(C)C[C@H](NC(=O)CNC(=O)[C@H](CO)NC(=O)[C@@H](N)CC(=O)O)C(=O)N[C@H](C(=O)N[C@@H](CC(C)C)C(=O)N[C@@H](CCCCN)C(=O)O)C(C)C [Peptide P11] (H-DSGLVLK-OH),N/A (N/A indicates solubility lower than 0.1 mg/mL),N/A (N/A indicates solubility lower than 0.1 mg/mL),,
CC(C)C[C@H](NC(=O)[C@H](CCC(N)=O)NC(=O)[C@@H]1CCCN1)C(=O)N[C@@H](CCC(=O)O)C(=O)N[C@@H](CC(C)C)C(=O)N[C@H](C(=O)N[C@H](C(=O)N1CCC[C@H]1C(=O)N[C@@H](CC(N)=O)C(=O)O)C(C)C)C(C)C [Peptide P22] (H-PQLELVVPN-OH),N/A (N/A indicates solubility lower than 0.1 mg/mL),,N/A (N/A indicates solubility lower than 0.1 mg/mL),
CC(C)[C@H](NC(=O)[C@H](C)NC(=O)[C@@H](NC(=O)[C@H](C)NC(=O)[C@H](CO)NC(=O)CN)C(C)C)C(=O)NCC(=O)N[C@@H](CCCNC(=N)N)C(=O)O [Peptide P5] (H-GSAVAVGR-OH),N/A (N/A indicates solubility lower than 0.1 mg/mL),,,
CC(C)[C@H](NC(=O)[C@H](CCC(=O)O)NC(=O)[C@H](C)NC(=O)[C@H](Cc1ccccc1)NC(=O)[C@H](CCC(=O)O)NC(=O)[C@H](C)N)C(=O)N[C@@H](CO)C(=O)N[C@@H](CCCCN)C(=O)O [Peptide P6] (H-AEFAEVSK-OH),,,,≤ 5
CC(C)C[C@H](NC(=O)[C@H](CCC(=O)O)NC(=O)[C@H](Cc1ccc(O)cc1)NC(=O)[C@H](Cc1ccc(O)cc1)NC(=O)[C@@H](N)CC(C)C)C(=O)N[C@@H](C)C(=O)N[C@@H](CCCNC(=N)N)C(=O)O [Peptide P14] (H-LYYELAR-OH),N/A (N/A indicates solubility lower than 0.1 mg/mL),,N/A (N/A indicates solubility lower than 0.1 mg/mL),
CC(C)C[C@H](NC(=O)[C@H](Cc1ccccc1)NC(=O)[C@H](CC(=O)O)NC(=O)[C@@H](NC(=O)[C@H](CC(C)C)NC(=O)[C@@H](N)[C@@H](C)O)C(C)C)C(=O)N[C@@H](CCCNC(=N)N)C(=O)O [Peptide P25] (H-TLVDFLR-OH),N/A (N/A indicates solubility lower than 0.1 mg/mL),,N/A (N/A indicates solubility lower than 0.1 mg/mL),
CC(C)C[C@H](NC(=O)CNC(=O)[C@H](Cc1ccccc1)NC(=O)[C@H](C)NC(=O)[C@H](CC(C)C)NC(=O)[C@H](C)NC(=O)[C@H](CC(C)C)NC(=O)[C@@H](N)[C@@H](C)O)C(=O)N[C@H](C(=O)N[C@@H](C)C(=O)O)[C@@H](C)O [Peptide P12] (H-TLALAFGLTA-OH),,,N/A (N/A indicates solubility lower than 0.1 mg/mL),
CC(C)C[C@H](NC(=O)[C@H](CO)NC(=O)[C@H](CC(C)C)NC(=O)[C@H](CC(=O)O)NC(=O)[C@H](CC(C)C)NC(=O)[C@@H](N)Cc1ccccc1)C(=O)N[C@@H](CCCCN)C(=O)O [Peptide P18] (H-FLDLSLK-OH),N/A (N/A indicates solubility lower than 0.1 mg/mL),,N/A (N/A indicates solubility lower than 0.1 mg/mL),
CC(C)C[C@H](NC(=O)[C@H](C)NC(=O)[C@H](CC(N)=O)NC(=O)CN)C(=O)N[C@@H](C)C(=O)N[C@H](C(=O)N[C@@H](CCCNC(=N)N)C(=O)O)[C@@H](C)O [Peptide P1] (H-GNALATR-OH),N/A (N/A indicates solubility lower than 0.1 mg/mL),,,
CC(C)C[C@H](NC(=O)[C@H](CC(=O)O)NC(=O)[C@@H](NC(=O)[C@@H](NC(=O)[C@@H](N)CC(C)C)[C@@H](C)O)C(C)C)C(=O)N[C@@H](Cc1ccccc1)C(=O)N[C@@H](CCCNC(=N)N)C(=O)O [Peptide P27] (H-LTVDLFR-OH),N/A (N/A indicates solubility lower than 0.1 mg/mL),,N/A (N/A indicates solubility lower than 0.1 mg/mL),
CC(C)[C@H](N)C(=O)N[C@H](C(=O)N[C@@H](CC(=O)O)C(=O)N[C@H](C(=O)N[C@@H](CO)C(=O)N[C@@H](CCC(=O)O)C(=O)N[C@H](C(=O)N[C@@H](Cc1ccccc1)C(=O)N[C@@H](Cc1ccccc1)C(=O)N[C@@H](CCCCN)C(=O)O)C(C)C)C(C)C)[C@@H](C)O [Peptide P28] (H-VTDVSEVFFK-OH),N/A (N/A indicates solubility lower than 0.1 mg/mL),,N/A (N/A indicates solubility lower than 0.1 mg/mL),
CC(C)C[C@H](NC(=O)[C@H](CCC(N)=O)NC(=O)[C@@H]1CCCN1)C(=O)N[C@@H](CCC(=O)O)C(=O)N[C@H](C(=O)N[C@@H](CC(C)C)C(=O)N[C@H](C(=O)N1CCC[C@H]1C(=O)N[C@@H](CC(N)=O)C(=O)O)C(C)C)C(C)C [Peptide P20] (H-PQLEVLVPN-OH),N/A (N/A indicates solubility lower than 0.1 mg/mL),,N/A (N/A indicates solubility lower than 0.1 mg/mL),
CC(C)C[C@H](NC(=O)[C@H](CCC(N)=O)NC(=O)[C@H](CC(C)C)NC(=O)[C@@H](NC(=O)[C@@H](N)CC(C)C)C(C)C)C(=O)N[C@@H](CC(=O)O)C(=O)N[C@@H](CC(N)=O)C(=O)N[C@@H](C)C(=O)N[C@@H](CCCCN)C(=O)O [Peptide P13] (H-LVLQLDNAK-OH),N/A (N/A indicates solubility lower than 0.1 mg/mL),,N/A (N/A indicates solubility lower than 0.1 mg/mL),
CC(C)C[C@H](NC(=O)[C@H](C)NC(=O)[C@@H](NC(=O)CNC(=O)[C@@H](NC(=O)[C@H](CO)NC(=O)[C@@H](NC(=O)[C@@H]1CCCN1C(=O)[C@@H](N)CCC(=O)O)[C@@H](C)O)C(C)C)C(C)C)C(=O)N[C@@H](C)C(=O)N[C@@H](CCC(=O)O)C(=O)O [Peptide P30] (H-EPTSVGVALAE-OH),,N/A (N/A indicates solubility lower than 0.1 mg/mL),N/A (N/A indicates solubility lower than 0.1 mg/mL),
CC(C)C[C@H](NC(=O)[C@H](CC(C)C)NC(=O)[C@H](CC(N)=O)NC(=O)[C@@H](NC(=O)[C@H](CO)NC(=O)[C@@H](NC(=O)[C@@H]1CCCN1C(=O)[C@@H](N)CCC(=O)O)[C@@H](C)O)C(C)C)C(=O)N[C@@H](C)C(=O)N[C@@H](CCC(=O)O)C(=O)O [Peptide P29] (H-EPTSVNLLAE-OH),N/A (N/A indicates solubility lower than 0.1 mg/mL),,N/A (N/A indicates solubility lower than 0.1 mg/mL),
CC(C)C[C@H](NC(=O)CNC(=O)[C@H](CC(C)C)NC(=O)[C@H](C)NC(=O)[C@H](C)NC(=O)[C@H](CO)NC(=O)[C@H](C)NC(=O)[C@H](C)NC(=O)[C@H](CCC(N)=O)NC(=O)[C@H](CC(C)C)NC(=O)[C@@H](N)C(C)C)C(=O)O [Peptide P24] (H-VLQAASAALGL-OH),N/A (N/A indicates solubility lower than 0.1 mg/mL),,N/A (N/A indicates solubility lower than 0.1 mg/mL),
